According to patent US12138242B1, “Controlling neuropathic pain” (Frimline Private Limited, priority 2017, dated 2024):

System: Oxaliplatin induced peripheral neuropathy in rat
Test: Cold hyperalgesia method (tail immersion test), oxaliplatin induced peripheral neuropathy
Format: in vivo, Wistar
Conditions: for % (average tail immersion time relative to 20.00 of normal control): Table 2, doses of Table 1 p.o.; for % (average tail immersion time relative to 20.00 of normal control) / Duration of tail immersion, AVG / Duration of tail immersion, Animal Mark 1 / Duration of tail immersion, Animal Mark 2 / Duration of tail immersion, Animal Mark 3 / Duration of tail immersion, Animal Mark 4 / Duration of tail immersion, Animal Mark 5 / Duration of tail immersion, Animal Mark 6: rat; for % (average tail immersion time relative to 20.00 of normal control) / Duration of tail immersion, AVG: n=6; for % (Day 4 relative to 20.00) / Tail immersion time, Day 0 / Tail immersion time, Day 4: Table 3, groups named by human effective dose/day; for Duration of tail immersion, AVG / Duration of tail immersion, Animal Mark 1 / Duration of tail immersion, Animal Mark 2 / Duration of tail immersion, Animal Mark 3 / Duration of tail immersion, Animal Mark 4 / Duration of tail immersion, Animal Mark 5 / Duration of tail immersion, Animal Mark 6: p.o. Day 1-3 at doses of Table 1, 24 hrs after oxaliplatin 12 mg/kg i.p., cut-off 20 seconds
Method: Example 21—Animal Study—Screening effect of synergistic combination or composition/formulation comprising PEA and other natural ingredients against Oxaliplatin induced peripheral neuropathy in rat.
• Species: Rat (Rattus norvegicus); • Strain: Wistar; Sex: Male/Female • No. of animals: 54 Animals (n=6 per group) • Animal House conditions: • Lighting: 12/12 hour light-dark cycle • Temperature: 25±2° C. • Relative Humidity: 30 to 70% • Temperature and relative humidity were recorded Thrice daily.
EXPERIMENTAL PROCEDURE: In study fifty-four (54) rats, were divided into total nine (09) groups. Group 1 served as the normal control, Group 2 served as the disease control, Group 3, Group 4 and Group 5 served as component (A, B and C), Group 6, Group 7 and Group 8 served as formulation of test drug, while Group 9 served as the Reference standard group. For these studies, the following combinations were used.
Group-1 received vehicle (0.25% w/v Sodium CMC) orally (p.o.) for three consecutive days (Day 1, 2 & 3). Group-2 to Group-8 received test drugs, while Group 9 received Pregabalin orally (p.o.) on Day-1, Day-2 and Day-3. All treatment groups (Group 2 to 9) were administered with oxaliplatin (12 mg/kg, i.p.) on Day-3 prior to 2 hrs of test drug administration. After 24 hrs of oxaliplatin administration, treated groups as well as the normal control group were assessed using the Cold hyperalgesia method.
Cold Hyperalgesia method (Tail Immersion Test): In the Tail-immersion test, water was maintained at low (0 to 4-C) temperature. The tail of the rat was immersed in cold water and the duration (time in seconds) of tail immersion was recorded, until the tail was withdrawn from water. The cut-off time of 20 seconds was used. The decrease in tail contact time with cold water was indicative pain whereas prolonged contact time was noted as anti-allodynic effect.

| Compound | % (average tail immersion time relative to 20.00 of normal control) [%] | % (Day 4 relative to 20.00) [%] | Tail immersion time, Day 0 | Tail immersion time, Day 4 | Duration of tail immersion, AVG [s] | Duration of tail immersion, Animal Mark 1 [s] | Duration of tail immersion, Animal Mark 2 [s] | Duration of tail immersion, Animal Mark 3 [s] | Duration of tail immersion, Animal Mark 4 [s] | Duration of tail immersion, Animal Mark 5 [s] | Duration of tail immersion, Animal Mark 6 [s] |
| --- | --- | --- | --- | --- | --- | --- | --- | --- | --- | --- | --- |
| O=c1c(-c2ccc(O)cc2)coc2cc(O)ccc12 [Daidzein] | 41.38 | 41.38 | 20.00 | 8.28 | 8.28 | 8.55 | 8.00 | 8.98 | 7.95 | 8.12 | 8.05 |
| O=c1c(-c2ccc(O)cc2)coc2cc(O)cc(O)c12 [Genistein] | 37.58 | 37.58 | 20.00 | 7.52 | 7.52 | 7.68 | 7.15 | 7.23 | 7.68 | 7.68 | 7.68 |
| CCCCCCCCCCCCCCCC(=O)NCCO [PEA, Palmitoylethanolamide] | 55.73 | 55.73 | 20.00 | 11.15 | 11.15 | 11.32 | 11.55 | 10.85 | 10.97 | 11.44 | 10.75 |
| CC(C)C[C@H](CN)CC(=O)O [Pregabalin, reference compound] | 96.27 | 96.27 | 20.00 | 19.25 | 19.25 | 17.20 | 20.00 | 20.00 | 19.95 | 18.37 | 20.00 |
